# Measurements: patent US6410588B1, “Use of cannabinoids as anti-inflammatory agents” (priority 1998, dated 2002)
# Read-outs that look alike come from different tables or passages of the source.
# How the values were obtained:
# TNFα production = TNFα production by Thioglycollate induced macrophages; format: cell-based, mouse (C57BL/6); set-up: TNFα production, 6 h / TNFα production, 24 h: unit not given here; conditions: for inhibition at 2 µg/mL / inhibition at 4 µg/mL / inhibition at 6 µg/mL: Mus musculus, Macrophage
# From the text: […] […] IFN-γ and IFN-α were purchased from Boehringer Mannheim, Germany.
# Thioglycoiate-elicited peritoneal macrophages from C57BL/6 mice.
# [1] = test system: Thioglycollate induced macrophages (Mφ); assay: viability of macrophages cultured with CBD; format: cell-based, mouse; conditions: 8 μg/ml CBD; after 48 hr
# [2] = test system: collagen induced arthritis (CIA)
# Protocol: Bovine type II collagen (CII) was purified from hyaline cartilage, as described [Williams, 1992# 18]. Male DBA/1 mice (8-12 weeks old) were immunized with 100 μg of CII emulsified in complete Freund's adjuvant CFA (Difco, Detroit, Mich.) by intradermal injection at the base of the tail. From day 15 after immunization onwards, mice were examined daily for onset of CIA using two clinical parameters: paw swelling and clinical score [Williams, PNAS, Vol. 89, pages 97848]. Paw swelling was assessed by measuring the thickness of the affected hind paws with 0-10 mm callipers (Kroeplin, Schluchtern, Germany). For the clinical score, 0=normal; 1=slight swelling and erythema; 2=pronounced edema; 3=joint rigidity. Each limb was graded, resulting in a maximal clinical score of 12 per animal. The arthritis was monitored over 10 days, after which the mice were sacrificed.
# Mice injected with vehicle alone (ethanolcremophor in saline) served as controls (n=23).
# chronic CIA = assay: chronic CIA, oral feeding of CBD; format: in vivo, mouse; conditions: 25 mg/kg oral daily
# Protocol: Controls were fed vehicle (olive oil).
# For the chronic experiments, 6 weeks old mice were immunized with mouse CII (100 μg CII i.d.=intradermal). From day 30 after immunization onwards, the mice developed a chronic relapsing arthritis, which was monitored for 5 weeks, in the same way as described above.
# For the chronic experiment with mouse CII, mice were treated from the first symptoms of arthritis every other day, for 5 weeks. […] Again, mice injected with Vehicle alone served as controls (n=7). For the oral route, the treatment was administered daily at a dose of 25 mg/kg (n=6) and control mice were fed olive oil (n=6).
# [3] = test system: collagen induced arthritis (CIA); assay: histological analysis of hind paw joints in CIA; format: in vivo, mouse; conditions: for joints completely protected: hind paws, day 10, control: no normal joints
# Protocol: The hind paws were assessed as normal, mildly affected or severely destroyed.
# Hind paws and knee joints were removed post mortem on the tenth day of arthritis, fixed in formalin and decalcified in 5% EDTA. Paws and knees were then embedded in paraffin, sectioned and stained with haematoxylin and eosin. Arthritic changes in the ankle, the metatarsophalangeal joints, the proximal interphalangeal and the distal interphalangeal joints were scored blindly as mild (mild synovial hyperplasia), moderate (pannus formulation and erosions limited to the cartilage-pannus junction), or severe (=extended bone and cartilage erosions with loss of joint architecture).
# EAE = assay: experimental autoimmune encephalomyelitis (EAE); format: in vivo, mouse (SJL/J)
# [4] = test system: Thioglycollate-elicited granulocytes; assay: viability of granulocytes in the ROI test; format: cell-based, mouse (C57BL/6)
# Protocol: Thioglycollate-elicited granulocytes were harvested from C57BL/6 mice by sterile lavage with PBS 18 hrs. after intraperitoneal injection with 1.5 ml thioglycollate medium (1.5 ml in 3% solution). The cells were washed and resuspended at 5×10^5 cells/ml in Hanks' buffered salt solution without phenol red, and distributed at 0.5 ml/tube into luminometer plastic tubes. […] The tube was inserted into luminometer (Biolumate LB 95 oot Berhold Wildbad Germany) which had been prewarmed to 37° C. The granulocyte luminol-enhanced chemiluminescence response to zymosan was considered as the positive control.
# TNFα release = assay: spontaneous TNF release by murine synovial cells from arthritic mice; format: cell-based, mouse (DBA/1); conditions: for O.D. (cytotoxicity assay for TNF) / TNF: supernatants after 24 h
# Protocol: DBA/1 mice which had been immunized with bovine CII in CFA, to induce CIA, as discussed above, were sacrificed at day 10 of arthritis and the knee joints were removed. Synovial cell cultures were performed as previously described. Briefly, synovial membranes were excised under a dissecting microscope and digested with collagenase A (1 mg/ml) (Boehringer-Mannheim) and DNAase type IV (0.15 mg/ml) (Sigma, Dorset, UK) at 37° C. for 20 minutes, in. the presence of polymyxin B (33 μg/ml) (Sigma). […] Supernatants were collected after 24 h. and stored at −20° C. until measured for cytokines.
# Well cytotoxicity assay was used.
# CB2 = CB2 (Homo sapiens, UniProt P34972); conditions: cited from earlier work
# Sequence of CB2 (P34972 whole entry, species assumed): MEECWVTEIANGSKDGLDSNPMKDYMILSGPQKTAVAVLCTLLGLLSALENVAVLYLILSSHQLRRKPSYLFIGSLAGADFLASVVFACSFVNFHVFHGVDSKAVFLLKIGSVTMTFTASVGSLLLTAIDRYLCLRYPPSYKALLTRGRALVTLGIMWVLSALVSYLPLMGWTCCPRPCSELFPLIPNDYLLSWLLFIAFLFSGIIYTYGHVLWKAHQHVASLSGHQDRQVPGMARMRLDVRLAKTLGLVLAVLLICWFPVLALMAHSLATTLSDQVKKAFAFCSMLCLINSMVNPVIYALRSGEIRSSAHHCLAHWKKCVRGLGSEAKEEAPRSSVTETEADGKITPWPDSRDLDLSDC
# PBQ-induced writhing = conditions: orally at doses up to 10 mg/kg; cited from earlier work
# TPA-induced erythema = conditions: applied topically; cited from earlier work
# IL-1 = conditions: cited from earlier work
# IL-2 = conditions: cited from earlier work
# [5] = LPS 1 μg/ml + IFNγ 10 U/ml, CBD 2 μg/ml, 24 h
structure (smiles),measurement,setting,value
"C=C(C)[C@@H]1CCC(C)=C[C@H]1c1c(O)cc(CCCCC)cc1O [CBD, Cannabidiol]","TNFα production, 6 h","TNFα production; LPS 1 μg/ml + IFNγ 10 U/ml, CBD 2 μg/ml, 6 h",744
same,"% INHIBITION of TNFα production, 24 h",TNFα production; [5],enhanced 72%
same,"TNFα production, 24 h",TNFα production; [5],4578
same,"TNFα production, 6 h","TNFα production; LPS 1 μg/ml + IFNγ 10 U/ml, CBD 4 μg/ml, 6 h",478
same,"TNFα production, 6 h","TNFα production; LPS 1 μg/ml + IFNγ 10 U/ml, CBD 6 μg/ml, 6 h",548
same,"TNFα production, 24 h","TNFα production; LPS 1 μg/ml + IFNγ 10 U/ml, CBD 4 (μg/ml), 24 h",437
same,"TNFα production, 24 h","TNFα production; LPS 1 μg/ml + IFNγ 10 U/ml, CBD 6 (μg/ml), 24 h",207
same,"TNFα production, 6 h","TNFα production; LPS 1 μg/ml, CBD 2 μg/ml, 6 h",543
same,"TNFα production, 6 h","TNFα production; LPS 1 μg/ml, CBD 4 μg/ml, 6 h",271
same,"TNFα production, 6 h","TNFα production; LPS 1 μg/ml, CBD 6 μg/ml, 6 h",290
same,"TNFα production, 24 h","TNFα production; LPS 1 μg/ml, CBD 2 (μg/ml), 24 h",90
same,"TNFα production, 24 h","TNFα production; LPS 1 μg/ml, CBD 4 (μg/ml), 24 h",36
same,"TNFα production, 24 h","TNFα production; LPS 1 μg/ml, CBD 6 (μg/ml), 24 h",34
same,inhibition at 2 µg/mL,"TNFα production; 6 h, LPS 1 μg/ml + IFNγ 10 U/ml, CBD 2 μg/ml, 6 h, read-out: % INHIBITION of TNFα production, 6 h",0%
same,inhibition at 4 µg/mL,"TNFα production; 6 h, LPS 1 μg/ml + IFNγ 10 U/ml, CBD 4 μg/ml, 6 h, read-out: % INHIBITION of TNFα production, 6 h",33%
same,inhibition at 6 µg/mL,"TNFα production; 6 h, LPS 1 μg/ml + IFNγ 10 U/ml, CBD 6 μg/ml, 6 h, read-out: % INHIBITION of TNFα production, 6 h",24%
same,inhibition at 2 µg/mL,"TNFα production; 6 h, LPS 1 μg/ml, CBD 2 μg/ml, 6 h, read-out: % INHIBITION of TNFα production, 6 h",9%
same,inhibition at 4 µg/mL,"TNFα production; 6 h, LPS 1 μg/ml, CBD 4 μg/ml, 6 h, read-out: % INHIBITION of TNFα production, 6 h",54%
same,inhibition at 6 µg/mL,"TNFα production; 6 h, LPS 1 μg/ml, CBD 6 μg/ml, 6 h, read-out: % INHIBITION of TNFα production, 6 h",51%
same,inhibition at 4 µg/mL,"TNFα production; 24 h, LPS 1 μg/ml + IFNγ 10 U/ml, CBD 4 μg/ml, 24 h, read-out: % INHIBITION of TNFα production, 24 h",84%
same,inhibition at 6 µg/mL,"TNFα production; 24 h, LPS 1 μg/ml + IFNγ 10 U/ml, CBD 6 μg/ml, 24 h, read-out: % INHIBITION of TNFα production, 24 h",92%
same,inhibition at 2 µg/mL,"TNFα production; 24 h, LPS 1 μg/ml, CBD 2 μg/ml, 24 h, read-out: % INHIBITION of TNFα production, 24 h",67%
same,inhibition at 4 µg/mL,"TNFα production; 24 h, LPS 1 μg/ml, CBD 4 μg/ml, 24 h, read-out: % INHIBITION of TNFα production, 24 h",87%
same,inhibition at 6 µg/mL,"TNFα production; 24 h, LPS 1 μg/ml, CBD 6 μg/ml, 24 h, read-out: % INHIBITION of TNFα production, 24 h",88%
same,effect on TNFα production (in words),TNFα production; low concentrations of CBD,enhance TNFα production
same,effect on TNFα production (in words),TNFα production; summary of Table 1,inhibits TNFα production
same,viability of Mφ,[1],**After 48 hr the Mφ cultured with 8 μg/ml CBD were only 70% viable
same,"therapeutic effect on CIA (clinical score, paw thickness)",[2]; 2.5 mg/kg i.p. daily until day 10,no effect at all
same,"therapeutic effect on CIA (clinical score, paw thickness)",[2]; 10 mg/kg i.p. daily until day 10,slight therapeutic effect
same,progression of chronic CIA (in words),chronic CIA,suppression of the progression of chronic CIA
same,area under the curve of arthritis score,chronic CIA; controls 72.3,49.7
same,joints moderately or severely affected,"[3]; 5 mg/kg CBD, control mice 69%",42%
same,joints completely protected,[3]; 5 mg/kg CBD,33%
same,joints completely protected,[3]; 10 mg/kg CBD,11%
same,suppression of EAE (in words),EAE; 10 mg/kg,markedly suppresses EAE
same,Duration of EAE,EAE; CBD 10 mg/kg i.p. once a day for 14 days,2.16 days
same,Incidence of EAE,"EAE; CBD 10 mg/kg i.p. once a day for 14 days, 6 SJL/J mice",2/6
same,Mean maximum score (EAE),"EAE; CBD 10 mg/kg i.p. once a day for 14 days, six point scale 0-6",1
same,cell viability at the end of the experiment,[4]; CBD 6 μg/ml,All cells were viable
same,cells available (viable),"[4]; after 1-2 hours of CBD treatment, 6 μg/ml",about 100%
same,O.D. (cytotoxicity assay for TNF),TNFα release; CBD 1 μg/ml,0.190 ± 0.003
same,TNF,TNFα release; CBD 1 μg/ml,>1000 pg/mL
same,O.D. (cytotoxicity assay for TNF),TNFα release; CBD 2.5 μg/ml,0.193 ± 0.004
same,TNF,TNFα release; CBD 2.5 μg/ml,>1000 pg/mL
same,O.D. (cytotoxicity assay for TNF),TNFα release; CBD 5 μg/ml,0.422 ± 0.251
same,TNF,TNFα release; CBD 5 μg/ml,100 pg/mL
same,O.D. (cytotoxicity assay for TNF),TNFα release; CBD 10 μg/ml,0.922 ± 0.103
same,TNF,TNFα release; CBD 10 μg/ml,2 pg/mL
same,TNF,TNFα release; CBD 20 μg/ml,<0.01 pg/mL
same,O.D. (cytotoxicity assay for TNF),TNFα release; CBD 50 μg/ml,1.163 ± 0.119
same,TNF,TNFα release; CBD 50 μg/ml,<0.01 pg/mL
same,spontaneous TNF release (in words),TNFα release; CBD added to in vitro cultures,dose-dependent suppression of TNF release
same,binding to peripheral receptor CB2,CB2,does not bind
same,PBQ-induced writhing,PBQ-induced writhing,inhibited PBQ-induced writhing
same,TPA-induced erythema,TPA-induced erythema,reduce TPA-induced erythema
same,IL-1 production,IL-1,decreased
same,IL-2 secretion,IL-2,did not affect IL-2 secretion
